Laboratory results published in US11434258B2, “Compounds (immunorhelins)” (ISR IMMUNE SYSTEM REGULATION HOLDING AB (PUBL), priority 2017, dated 2022).
Non-standard residues stand in square brackets, D forms with d. Residues, ends and D or L forms follow the SMILES beside them. *: point of attachment. dHis(τ-Bn) = N[C@H](Cc1cn(Cc2ccccc2)cn1)C(=O)O; d2Nal = N[C@H](Cc1ccc2ccccc2c1)C(=O)O; pGlu = O=C1CC[C@@H](C(=O)O)N1; tBu = CC(C)(C)*

Legend:
[1] = Solubility in PBS (LC/UV AUC trend); conditions: PBS pH 7.4, 0.2 mg/ml; rating 1 (good) to 5 (poor)
GnRHR = biological target: T1, GnRHR (Homo sapiens, UniProt P30968); assay: Calcium assay in CHO-K1 cells (Genscript), FLIPR; format: cell-based; conditions: CHO-K1/GnRHR/Ga15 cells, relative to agonist control, read-out: GNRHR Stimulation at 1 μM
T1 construct: host or cells: CHO-K1 (CHO-K1/GnRHR/Ga15)
T1 sequence (P30968 1-328): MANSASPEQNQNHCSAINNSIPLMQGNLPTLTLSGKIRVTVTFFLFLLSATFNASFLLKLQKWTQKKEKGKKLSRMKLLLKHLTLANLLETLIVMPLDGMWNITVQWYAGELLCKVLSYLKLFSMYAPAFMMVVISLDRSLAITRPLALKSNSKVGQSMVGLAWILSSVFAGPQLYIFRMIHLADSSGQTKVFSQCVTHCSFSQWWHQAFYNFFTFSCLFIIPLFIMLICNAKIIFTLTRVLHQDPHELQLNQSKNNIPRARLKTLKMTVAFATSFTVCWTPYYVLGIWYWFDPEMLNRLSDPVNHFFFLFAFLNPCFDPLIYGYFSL
Method: Test article sample solutions were dissolved in HBSS buffer (with 20 mM HEPES buffer, pH 7.4) to form the 5× working solution. FLIPR® Calcium 4 assay kit from Molecular devices (R8141) was used as required. In brief, CHO-K1 cells expressing GnRHR (CHO-K1/GnRHR/Ga15, Genscript accession NM_000406) were respectively cultured in the 10-cm dishes and maintained at 37° C./5% CO2. CHO-K1 cells expressing GNRHR were respectively seeded in a 384-well black-wall, clear-bottom plate at a density of 15,000 cells per well in 20 μl of growth medium about 18 hours prior to the day of experiment and maintained at 37° C./5% CO2. Then, 20 μl of dye loading solution was added into the wells and the plates were subsequently placed into a 37° C. incubator for 60 minutes, followed by a 15 minutes' incubation at room temperature. At last, 10 μl of compounds or control agonist were added into respective wells of the assay plate during reading in FLIPR. The plate containing 5× compound and control agonist solution was placed in FLIPR. Solutions were added into the cell plate automatically at the 20 seconds and the fluorescence signal was monitored for an additional 100 seconds (21 sec to 120 sec.). Data were recorded by ScreenWorks (version 3.1) as FMD files with FLIPR and stored on the GenScript computer network for off-line analysis. Data acquisition and analyses was performed using ScreenWorks (version 3.1) program and exported to Excel. The average value of the first 20 seconds' reading was calculated as the baseline and the relative fluorescent units (ΔRFU) intensity values were calculated by subtracting the average value of baseline from the maximum fluorescent units (21 s to 120 s).
The % Stimulation was calculated with the following equation: % Stimulation=(ΔRFUCompound−ΔRFUBackground)/(ΔRFUAgonist control−ΔRFUBackground)×100
Dose response curves were fitted with four-parameter-logistic-equation by the software GraphPad Prism 6.
Equation: four parameter logistic equation. Y=Bottom+(Top-Bottom)/(1+10^((Log EC50−X)×Hillslope))
X is the logarithm of concentration. Y is the response.

[2] = Stability in aqueous media (PBS pH 7.4); format: physicochemical; set-up: unit not given here; conditions: phosphate buffer solution (PBS); PBS pH 7.4, 37° C., samples at T=0, 4, 24, 96 h; read-out: Stability grading (t1/2)
Excerpt: LC/MS data was collected for compound identity.

| SMILES | Solubility grading [1] | activation at 1 µM (GnRHR) | half-life at 0.2 mg/ml [2] |
| --- | --- | --- | --- |
| CCNC(=O)[C@@H]1CCCN1C(=O)[C@H](CCCNC(=N)N)NC(=O)[C@H](CC(C)C)NC(=O)[C@@H](COC(C)(C)C)NC(=O)[C@H](Cc1ccc(O)cc1)NC(=O)[C@H](CO)NC(=O)[C@H](Cc1c[nH]c2ccccc12)NC(=O)[C@H](Cc1cnc[nH]1)NC(=O)[C@@H]1CCC(=O)N1 [Buserelin acetate, reference compound] | 1 | – | – |
| CCNC(=O)[C@@H]1CCCN1C(=O)[C@H](CCCNC(=N)N)NC(=O)[C@H](CC(C)C)NC(=O)[C@@H](COC(C)(C)C)NC(=O)[C@H](Cc1c[nH]cn1)NC(=O)[C@H](CO)NC(=O)[C@H](Cc1c[nH]c2ccccc12)NC(=O)[C@H](Cc1c[nH]cn1)NC(=O)[C@@H]1CCC(=O)N1 [Compound 6, pGlu-His-Trp-Ser-His-D-Ser(tBu)-Leu-Arg-Pro-NHEt] ([pGlu]HWSH[dS](tBu)LRP-NHEt) | 1 | 88% | > 96 |
| CC(C)C[C@H](NC(=O)[C@@H](Cc1c[nH]c2ccccc12)NC(=O)[C@H](Cc1c[nH]cn1)NC(=O)[C@H](CO)NC(=O)[C@H](Cc1c[nH]c2ccccc12)NC(=O)[C@H](Cc1c[nH]cn1)NC(=O)[C@@H]1CCC(=O)N1)C(=O)N[C@@H](Cc1ccc(O)cc1)C(=O)N1CCC[C@H]1C(=O)NCC(N)=O [Compound 16, pGlu-His-Trp-Ser-His-D-Trp-Leu-Tyr-Pro-Gly-amide] ([pGlu]HWSH[dW]LYPG-NH2) | – | 76% | > 96 |
| N=C(N)NCCC[C@H](NC(=O)[C@H](Cc1c[nH]c2ccccc12)NC(=O)[C@@H](Cc1c[nH]c2ccccc12)NC(=O)[C@H](Cc1c[nH]cn1)NC(=O)[C@H](CO)NC(=O)[C@H](Cc1c[nH]c2ccccc12)NC(=O)[C@H](Cc1c[nH]cn1)NC(=O)[C@@H]1CCC(=O)N1)C(=O)N1CCC[C@H]1C(=O)NCC(N)=O [Compound 20, pGlu-His-Trp-Ser-His-D-Trp-Trp-Arg-Pro-NHEt] | – | 75% | > 96 |
| CC(C)C[C@H](NC(=O)[C@@H](Cc1ccc2ccccc2c1)NC(=O)[C@H](Cc1ccc(O)cc1)NC(=O)[C@H](CO)NC(=O)[C@H](Cc1c[nH]c2ccccc12)NC(=O)[C@H](Cc1c[nH]cn1)NC(=O)[C@@H]1CCC(=O)N1)C(=O)N[C@@H](Cc1ccc(O)cc1)C(=O)N1CCC[C@H]1C(=O)NCC(N)=O [Compound 25, pGlu-His-Trp-Ser-Tyr-D-Nal-Leu-Tyr-Pro-Gly-amide] ([pGlu]HWSY[d2Nal]LYPG-NH2) | – | 82% | < 96 |
| CC(C)C[C@H](NC(=O)[C@@H](Cc1ccc2ccccc2c1)NC(=O)[C@H](Cc1c[nH]cn1)NC(=O)[C@H](CO)NC(=O)[C@H](Cc1c[nH]c2ccccc12)NC(=O)[C@H](Cc1c[nH]cn1)NC(=O)[C@@H]1CCC(=O)N1)C(=O)N[C@@H](Cc1ccc(O)cc1)C(=O)N1CCC[C@H]1C(=O)NCC(N)=O [Compound 28, pGlu-His-Trp-Ser-His-D-Nal-Leu-Tyr-Pro-Gly-amide] ([pGlu]HWSH[d2Nal]LYPG-NH2) | – | 95% | > 96 |
| NC(=O)CNC(=O)[C@@H]1CCCN1C(=O)[C@H](Cc1ccc(O)cc1)NC(=O)[C@H](Cc1c[nH]c2ccccc12)NC(=O)[C@@H](Cc1ccc2ccccc2c1)NC(=O)[C@H](Cc1c[nH]cn1)NC(=O)[C@H](CO)NC(=O)[C@H](Cc1c[nH]c2ccccc12)NC(=O)[C@H](Cc1c[nH]cn1)NC(=O)[C@@H]1CCC(=O)N1 [Compound 33, pGlu-His-Trp-Ser-His-D-Nal-Trp-Tyr-Pro-Gly-amide] ([pGlu]HWSH[d2Nal]WYPG-NH2) | – | 67% | < 96 |
| CCNC(=O)[C@@H]1CCCN1C(=O)[C@H](CCCNC(=N)N)NC(=O)[C@H](Cc1c[nH]c2ccccc12)NC(=O)[C@@H](CC(C)C)NC(=O)[C@H](Cc1ccc(O)cc1)NC(=O)[C@H](CO)NC(=O)[C@H](Cc1c[nH]c2ccccc12)NC(=O)[C@H](Cc1c[nH]cn1)NC(=O)[C@@H]1CCC(=O)N1 [Compound 44, pGlu-His-Trp-Ser-Tyr-D-Leu-Trp-Arg-Pro-NHEt] ([pGlu]HWSY[dL]WRP-NHEt) | – | 111% | > 96 |
| CCNC(=O)[C@@H]1CCCN1C(=O)[C@H](Cc1ccc(O)cc1)NC(=O)[C@H](CC(C)C)NC(=O)[C@@H](CC(C)C)NC(=O)[C@H](Cc1ccc(O)cc1)NC(=O)[C@H](CO)NC(=O)[C@H](Cc1c[nH]c2ccccc12)NC(=O)[C@H](Cc1c[nH]cn1)NC(=O)[C@@H]1CCC(=O)N1 [Compound 45, pGlu-His-Trp-Ser-Tyr-D-Leu-Leu-Tyr-Pro-NHEt] ([pGlu]HWSY[dL]LYP-NHEt) | – | 105% | > 96 |
| CCNC(=O)[C@@H]1CCCN1C(=O)[C@H](Cc1ccc(O)cc1)NC(=O)[C@H](CC(C)C)NC(=O)[C@@H](CC(C)C)NC(=O)[C@H](Cc1c[nH]cn1)NC(=O)[C@H](CO)NC(=O)[C@H](Cc1c[nH]c2ccccc12)NC(=O)[C@H](Cc1c[nH]cn1)NC(=O)[C@@H]1CCC(=O)N1 [Compound 48, pGlu-His-Trp-Ser-His-D-Leu-Leu-Tyr-Pro-NHEt] ([pGlu]HWSH[dL]LYP-NHEt) | – | 118% | > 96 |
| CCNC(=O)[C@@H]1CCCN1C(=O)[C@H](Cc1ccc(O)cc1)NC(=O)[C@H](Cc1c[nH]c2ccccc12)NC(=O)[C@@H](CC(C)C)NC(=O)[C@H](Cc1ccc(O)cc1)NC(=O)[C@H](CO)NC(=O)[C@H](Cc1c[nH]c2ccccc12)NC(=O)[C@H](Cc1c[nH]cn1)NC(=O)[C@@H]1CCC(=O)N1 [Compound 49, pGlu-His-Trp-Ser-Tyr-D-Leu-Trp-Tyr-Pro-NHEt] ([pGlu]HWSY[dL]WYP-NHEt) | – | 77% | > 96 |
| CCNC(=O)[C@@H]1CCCN1C(=O)[C@H](Cc1ccc(O)cc1)NC(=O)[C@H](CC(C)C)NC(=O)[C@@H](Cc1cn(Cc2ccccc2)cn1)NC(=O)[C@H](Cc1ccc(O)cc1)NC(=O)[C@H](CO)NC(=O)[C@H](Cc1c[nH]c2ccccc12)NC(=O)[C@H](Cc1c[nH]cn1)NC(=O)[C@@H]1CCC(=O)N1 [Compound 59, pGlu-His-Trp-Ser-Tyr-D-Bhi-Leu-Tyr-Pro-NHEt] ([pGlu]HWSY[dHis(τ-Bn)]LYP-NHEt) | – | 85% | < 96 |
| CCNC(=O)[C@@H]1CCCN1C(=O)[C@H](CCCNC(=N)N)NC(=O)[C@H](Cc1c[nH]c2ccccc12)NC(=O)[C@@H](Cc1cn(Cc2ccccc2)cn1)NC(=O)[C@H](Cc1c[nH]cn1)NC(=O)[C@H](CO)NC(=O)[C@H](Cc1c[nH]c2ccccc12)NC(=O)[C@H](Cc1c[nH]cn1)NC(=O)[C@@H]1CCC(=O)N1 [Compound 60, pGlu-His-Trp-Ser-His-D-Bhi-Trp-Arg-Pro-NHEt] ([pGlu]HWSH[dHis(τ-Bn)]WRP-NHEt) | – | 102% | > 96 |
| CCNC(=O)[C@@H]1CCCN1C(=O)[C@H](Cc1ccc(O)cc1)NC(=O)[C@H](CC(C)C)NC(=O)[C@@H](Cc1cn(Cc2ccccc2)cn1)NC(=O)[C@H](Cc1c[nH]cn1)NC(=O)[C@H](CO)NC(=O)[C@H](Cc1c[nH]c2ccccc12)NC(=O)[C@H](Cc1c[nH]cn1)NC(=O)[C@@H]1CCC(=O)N1 [Compound 61, pGlu-His-Trp-Ser-His-D-Bhi-Leu-Tyr-Pro-NHEt] ([pGlu]HWSH[dHis(τ-Bn)]LYP-NHEt) | – | 112% | > 96 |
| NC(=O)CNC(=O)[C@@H]1CCCN1C(=O)[C@H](Cc1ccc(O)cc1)NC(=O)[C@H](Cc1c[nH]c2ccccc12)NC(=O)[C@@H](Cc1c[nH]c2ccccc12)NC(=O)[C@H](Cc1c[nH]cn1)NC(=O)[C@H](CO)NC(=O)[C@H](Cc1c[nH]c2ccccc12)NC(=O)[C@H](Cc1c[nH]cn1)NC(=O)[C@@H]1CCC(=O)N1 [Compound 65, pGlu-His-Trp-Ser-His-D-Trp-Trp-Tyr-Pro-Gly-amide] ([pGlu]HWSH[dW]WYPG-NH2) | – | 72% | > 96 |
